Results: patent EP1075186B1, “METHOD OF HSV PROPHYLAXIS” (The Children's Hospital Research Foundation, priority 1998, dated 1999)

Experiments:
HSV-2 strain 186 [1] = experiment: Mouse genital HSV-2 model, intravaginal prophylaxis; type: in vivo, Swiss Webster mice
Procedure: Sixty female Swiss Webster mice pretreated with medroxyprogesterone acetate were randomized to four groups of 15 to receive either Saline (control), 2 % Acyclovir, 2 % Compound 96, or 0.5% Compound 96. Animals were anesthetized by intraperitoneal injection of sodium pentabarbital and then administered 15 µl of control or test compound intravaginally in one treatment. They were then immediately challenged by intravaginal instillation with 15 µl of a suspension containing 10^4 plaque forming units HSV-2 strain 186. Vaginal swabs were collected on days 1 and 2 post-inoculation (PI) to assess the effect of treatment on vaginal replication in the genital tract. In addition, all animals were examined daily until day 21 PI for mortality and signs of infection (erythema, hair loss and hind limb paralysis).

[2] = tested on: human foreskin fibroblast (HFF) cell monolayers; experiment: Toxicity effects controls (sham-inoculated compound treated HFF monolayers); type: cell-based; details: for TOXICITY EFFECTS CONTROL: Experiment 4, Table 10
From the text: Sham-incolulated, non-treated HFF cell monolayers were included along with the drug-treated monolayers as "cell monolayer controls". • 1. HSV-1 inoculated, non-compound treated HFF monolayers were included as "positive controls"; and • 2.
In the tables, the symbols have the meaning indicated: + = toxic; - = no toxicity; +/- = mild toxicity; ND = not done; T = toxicity effects interfered with CPE rating; CPE = cytopathic effect.

HSV-2 strain 186 [3] = experiment: Mouse genital HSV-2 model, intravaginal prophylaxis; type: in vivo, Swiss Webster mice; details: repeat study
VZV = experiment: In vitro assay with VZV on HFF cell monolayers; type: cell-based; details: Example 2, Table 17, 0.1 mg/ml, footnote: this toxicity observation is questionable
Procedure: VZV was grown to a CPE level […] of 3-4 + on HFF cell monolayers. The VZV was scraped from the flask, centrifuged and the cell pellet was resuspended in 10 ml of complete medium. 100 to 200 µl of the VZV cell associated inoculum was inoculated onto confluent HFF cell monolayers by absorption for 60 minutes at 37°C. After absorption of the virus, the inoculum was aspirated from the cell monolayers.
The VZV-infected monolayers were rehydrated with medium containing the appropriate concentrations of compounds to be tested. All monolayers were incubated at 37°C. Development of VZV cytopathology was monitored daily for 7 days by inverted light microscopy. Titers were calculated by multiple regression analysis.

[4] = 0.001 mg/ml, 24 hrs post incubation
[5] = 0.001 mg/ml, 48 hrs post incubation
[6] = 0.01 mg/ml, 24 hrs post incubation
[7] = 0.01 mg/ml, 48 hrs post incubation
[8] = 0.1 mg/ml, 24 hrs post incubation
[9] = 0.1 mg/ml, 48 hrs post incubation
[10] = 0.5 mg/ml, 24 hrs post incubation
[11] = 0.5 mg/ml, 48 hrs post incubation
[12] = 1 mg/ml, 24 hrs post incubation
[13] = 1 mg/ml, 48 hrs post incubation
[14] = 5 mg/ml, 24 hrs post incubation
[15] = 5 mg/ml, 48 hrs post incubation

CC1=CC(C)=[N+]2CC[N+]3=C(C)C=C(C)[O][Co-3]23([n+]2cc[nH]c2C)([n+]2cc[nH]c2C)[O]1 [Compound 96]
signs of genital disease (HSV-2 strain 186 [1]; 2 % and 0.5% groups, 15 mice each): none of these animals developed any signs of genital disease | mortality (HSV-2 strain 186 [1]; 2 % and 0.5% groups, 15 mice each, to day 21 PI): all lived | vaginal herpes infection (HSV-2 strain 186 [1]; topical (intravaginal) application before HSV-2 challenge): completely blocked | virus in the genital tract (HSV-2 strain 186 [1]; vaginal swabs on day 1 or 2 PI): no detectable virus | TOXICITY EFFECTS CONTROLS ([2]; Experiment 1, Table 1, 0.001 mg/ml, 24 h): - | TOXICITY EFFECTS CONTROLS ([2]; Experiment 1, Table 1, 0.001 mg/ml, 48 h): - | TOXICITY EFFECTS CONTROLS ([2]; Experiment 1, Table 1, 0.01 mg/ml, 24 h): - | TOXICITY EFFECTS CONTROLS ([2]; Experiment 1, Table 1, 0.01 mg/ml, 48 h): - | TOXICITY EFFECTS CONTROLS ([2]; Experiment 1, Table 1, 0.1 mg/ml, 24 h): - | TOXICITY EFFECTS CONTROLS ([2]; Experiment 1, Table 1, 0.1 mg/ml, 48 h): - | TOXICITY EFFECTS CONTROLS ([2]; Experiment 1, Table 1, 1 mg/ml, 24 h): - | TOXICITY EFFECTS CONTROLS ([2]; Experiment 1, Table 1, 1 mg/ml, 48 h): - | toxicity ([2]; Experiment 1, 1 mg/ml): lack of toxicity | TOXICITY EFFECTS CONTROLS ([2]; Experiment 2, Table 4, 0.001 mg/ml, 24 h PI): - | TOXICITY EFFECTS CONTROLS ([2]; Experiment 2, Table 4, 0.001 mg/ml, 48 h PI): - | TOXICITY EFFECTS CONTROLS ([2]; Experiment 2, Table 4, 0.01 mg/ml, 24 h PI): - | TOXICITY EFFECTS CONTROLS ([2]; Experiment 2, Table 4, 0.01 mg/ml, 48 h PI): - | TOXICITY EFFECTS CONTROLS ([2]; Experiment 2, Table 4, 0.1 mg/ml, 24 h PI): - | TOXICITY EFFECTS CONTROLS ([2]; Experiment 2, Table 4, 0.1 mg/ml, 48 h PI): - | TOXICITY EFFECTS CONTROLS ([2]; Experiment 2, Table 4, 1 mg/ml, 24 h PI): - | TOXICITY EFFECTS CONTROLS ([2]; Experiment 2, Table 4, 1 mg/ml, 48 h PI): - | TOXICITY EFFECTS CONTROLS ([2]; Experiment 3, Table 7, 0.001 mg/ml, 24 hrs post incubation): - | TOXICITY EFFECTS CONTROLS ([2]; Experiment 3, Table 7, 0.001 mg/ml, 48 hrs post incubation): - | TOXICITY EFFECTS CONTROLS ([2]; Experiment 3, Table 7, 0.01 mg/ml, 24 hrs post incubation): - | TOXICITY EFFECTS CONTROLS ([2]; Experiment 3, Table 7, 0.01 mg/ml, 48 hrs post incubation): - | TOXICITY EFFECTS CONTROLS ([2]; Experiment 3, Table 7, 0.1 mg/ml, 24 hrs post incubation): +/- | TOXICITY EFFECTS CONTROLS ([2]; Experiment 3, Table 7, 0.1 mg/ml, 48 hrs post incubation): +/- | TOXICITY EFFECTS CONTROLS ([2]; Experiment 3, Table 7, 0.5 mg/ml, 24 hrs post incubation): - | TOXICITY EFFECTS CONTROLS ([2]; Experiment 3, Table 7, 0.5 mg/ml, 48 hrs post incubation): - | TOXICITY EFFECTS CONTROLS ([2]; Experiment 3, Table 7, 1 mg/ml, 24 hrs post incubation): - | TOXICITY EFFECTS CONTROLS ([2]; Experiment 3, Table 7, 1 mg/ml, 48 hrs post incubation): +/- | TOXICITY EFFECTS CONTROLS ([2]; Experiment 3, Table 7, 5 mg/ml, 24 hrs post incubation): +/- | TOXICITY EFFECTS CONTROLS ([2]; Experiment 3, Table 7, 5 mg/ml, 48 hrs post incubation): +/- | TOXICITY EFFECTS CONTROL [2, 4]: - | TOXICITY EFFECTS CONTROL [2, 5]: - | TOXICITY EFFECTS CONTROL [2, 6]: - | TOXICITY EFFECTS CONTROL [2, 7]: - | TOXICITY EFFECTS CONTROL [2, 8]: +/- | TOXICITY EFFECTS CONTROL [2, 9]: +/- | TOXICITY EFFECTS CONTROL [2, 10]: - | TOXICITY EFFECTS CONTROL [2, 11]: - | TOXICITY EFFECTS CONTROL [2, 12]: +/- | TOXICITY EFFECTS CONTROL [2, 13]: +/- | TOXICITY EFFECTS CONTROL [2, 14]: +/- | TOXICITY EFFECTS CONTROL [2, 15]: + | TOXICITY EFFECTS CONTROLS ([2]; Experiment 5, Table 12, 48 Hours Post Incubation, 0.001 mg/ml): - | TOXICITY EFFECTS CONTROLS ([2]; Experiment 5, Table 12, 48 Hours Post Incubation, 0.01 mg/ml): - | TOXICITY EFFECTS CONTROLS ([2]; Experiment 5, Table 12, 48 Hours Post Incubation, 1 mg/ml): - | TOXICITY EFFECTS CONTROLS ([2]; Experiment 5, Table 12, 48 Hours Post Incubation, 2 mg/ml): +/- | TOXICITY EFFECTS CONTROLS ([2]; Experiment 5, Table 12, 48 Hours Post Incubation, 5 mg/ml): +/- | toxicity ([2]; Experiment 5, cell rounding, detaching from the monolayer, increased granularity, loss of normal morphology): more pronounced in the 0.5 and the 0.1 mg/ml concentrations | protection from visible infection and death (HSV-2 strain 186 [3]; concentrations of 0.1 % or more): completely protected | animals protected from death (HSV-2 strain 186 [3]; lowest concentration of 0.01 %): 6 of 10 | VIRUCIDAL EFFICACY 7 Days Post Inoculation Efficacy (VZV): T?

CC1=CC(C)=[N+]2CC[N+]3=C(C)C=C(C)[O][Co-3]23([n+]2c[nH]c(C)c2)([n+]2c[nH]c(C)c2)[O]1 [Compound 97]
TOXICITY EFFECTS CONTROL [2, 4]: - | TOXICITY EFFECTS CONTROL [2, 5]: - | TOXICITY EFFECTS CONTROL [2, 6]: - | TOXICITY EFFECTS CONTROL [2, 7]: - | TOXICITY EFFECTS CONTROL [2, 8]: +/- | TOXICITY EFFECTS CONTROL [2, 9]: +/- | TOXICITY EFFECTS CONTROL [2, 10]: - | TOXICITY EFFECTS CONTROL [2, 11]: - | TOXICITY EFFECTS CONTROL [2, 12]: +/- | TOXICITY EFFECTS CONTROL [2, 13]: +/- | TOXICITY EFFECTS CONTROL [2, 14]: +/- | TOXICITY EFFECTS CONTROL [2, 15]: +

CC1=[N+]2CC[N+]3=C(C)C=C(c4ccccc4)[O][Co-3]23([n+]2cc[nH]c2C)([n+]2cc[nH]c2C)[O]C(c2ccccc2)=C1 [Compound 102]
TOXICITY EFFECTS CONTROL [2, 4]: - | TOXICITY EFFECTS CONTROL [2, 5]: - | TOXICITY EFFECTS CONTROL [2, 6]: - | TOXICITY EFFECTS CONTROL [2, 7]: - | TOXICITY EFFECTS CONTROL [2, 8]: - | TOXICITY EFFECTS CONTROL [2, 9]: - | TOXICITY EFFECTS CONTROL [2, 10]: - | TOXICITY EFFECTS CONTROL [2, 11]: - | TOXICITY EFFECTS CONTROL [2, 12]: +/- | TOXICITY EFFECTS CONTROL [2, 13]: +/- | TOXICITY EFFECTS CONTROL [2, 14]: +/- | TOXICITY EFFECTS CONTROL [2, 15]: +
